{"source": "patent US20200069668A1", "about": "“Therapeutic Combinations of an IRAK4 Inhibitor and a BTK Inhibitor” (Acerta Pharma B.V., priority 2015, published 2020)", "key": {"ID8 ovarian cancer": {"tested_on": "ID8 ovarian cancer", "assay": "ID8 syngeneic orthotropic ovarian cancer model", "format": "in vivo, mice", "details": "15 mg/kg/BID orally", "from_the_text": "Human ovarian cancer models, including the ID8 syngeneic orthotropic ovarian cancer model and other animal models, are described in Fong and Kakar, J. Ovarian Res. 2009, 2, 12; Greenaway, et al., Gynecol. Oncol. 2008, 108, 385-94; Urzua, et al., Tumour Biol. 2005, 26, 236-44; Janat-Amsbury, et al., Anticancer Res. 2006, 26, 3223-28; Janat-Amsbury, et al., Anticancer Res. 2006, 26, 2785-89. […] The results of the study are shown in FIG. 4, FIG. 5, FIG. 6, FIG. 7, FIG. 8, FIG. 9, FIG. 10, and FIG. 11."}, "[1]": {"tested_on": "80 known pharmacologic targets such as G-protein-coupled receptors, nuclear receptors, proteases, and ion channels", "assay": "Binding assays with 80 known pharmacologic targets", "details": "screened at 10 μM", "from_the_text": "(§1) Formula (2) was well tolerated in standard in vivo Good Laboratory Practices (GLP) studies of pharmacologic safety."}, "relapsed/refractory CLL": {"tested_on": "relapsed/refractory CLL", "assay": "Clinical study in relapsed/refractory CLL: efficacy", "format": "in vivo, human", "details": "Kaplan-Meier, p-value 0.0206", "protocol": "This study is a multicenter, open-label, nonrandomized, sequential group, dose escalation study. The following dose cohorts will be evaluated:\nThe investigator rates the subject's response to treatment based on recent guidelines for CLL, as given in Hallek, et al., Blood 2008, 111, 5446-56, and for SLL, as given in Cheson, et al., J. Clin. Oncol. 2007, 25, 579-586.\nThe analysis of efficacy parameters was performed as follows. The point estimate of the overall response rate will be calculated for the PP analysis set. The corresponding 95% confidence interval also will be derived. The duration of overall response is measured from the time measurement criteria are met for CR or PR (whichever is first recorded) until the first date that recurrent or progressive disease is objectively documented (taking as reference for progressive disease the smallest measurements recorded since the treatment started). […] Progression-free survival is measured from the time of first study drug administration until the first date that recurrent or progressive disease is objectively documented (taking as reference for progressive disease the smallest measurements recorded since the treatment started). […]\nThe study scheme is a seqential cohort escalation. […] The dose level for Cohort 6 will be determined based on the safety and efficacy of Cohorts 1 to 5, and will not exceed 900 mg/day. […]"}, "[2]": {"assay": "Cardiovascular function study in awake telemeterized dogs", "format": "in vivo, male beagle dogs", "details": "single doses through 30 mg/kg", "from_the_text": "as §1"}, "[3]": {"tested_on": "GPVI platelet aggregation", "assay": "GPVI (convulxin) platelet aggregation", "format": "cell-based, human"}, "[4]": {"tested_on": "BCR activation markers CD69 and CD86", "assay": "In vivo potency: BCR activation markers after gavage", "details": "mice, 3 hours post-dose, IgM stimulation, compared with Formula (10)", "protocol": "Mice were gavaged at increasing drug concentration and sacrificed at one time point (3 hours post-dose). BCR is stimulated with IgM and the expression of activation markers CD69 and CD86 are monitored by flow cytometry to determine EC50 values.\nCD86 and CD69 are cell surface proteins that are BCR activation markers. […] BCR was stimulated with IgM and the expression of activation marker CD69 and CD86 are monitored by flow cytometry to determine EC50 values."}, "NSCLC (KrasLA2)": {"tested_on": "NSCLC (KrasLA2)", "assay": "KrasLA2 NSCLC genetic tumor model", "format": "in vivo, mice", "details": "15 mg/kg", "from_the_text": "The model is designed to have sporadic expression in single cells of G12D mutant Kras off its own promoter triggered by spontaneous intrachromosomal recombination. Johnson, et al. Nature 2001, 410, 1111-16. While the mutant Kras protein is expressed in a few cells in all tissues, tumor development is seen only in the lung at high penetrance."}, "[5]": {"assay": "In vitro metabolism in hepatocytes with 14C-labeled drug", "format": "in vitro ADME, and human", "details": "mouse, rat, dog, rabbit, monkey, human hepatocytes"}, "BTK": {"biological_target": "T1, BTK (Mus musculus, UniProt P35991)", "T1 construct": "endogenous in cells; host or cells: granulocytic and monocytic MDSCs from tumour-bearing PDA (KPC) mice dosed in vivo", "T1 sequence (P35991 whole entry)": "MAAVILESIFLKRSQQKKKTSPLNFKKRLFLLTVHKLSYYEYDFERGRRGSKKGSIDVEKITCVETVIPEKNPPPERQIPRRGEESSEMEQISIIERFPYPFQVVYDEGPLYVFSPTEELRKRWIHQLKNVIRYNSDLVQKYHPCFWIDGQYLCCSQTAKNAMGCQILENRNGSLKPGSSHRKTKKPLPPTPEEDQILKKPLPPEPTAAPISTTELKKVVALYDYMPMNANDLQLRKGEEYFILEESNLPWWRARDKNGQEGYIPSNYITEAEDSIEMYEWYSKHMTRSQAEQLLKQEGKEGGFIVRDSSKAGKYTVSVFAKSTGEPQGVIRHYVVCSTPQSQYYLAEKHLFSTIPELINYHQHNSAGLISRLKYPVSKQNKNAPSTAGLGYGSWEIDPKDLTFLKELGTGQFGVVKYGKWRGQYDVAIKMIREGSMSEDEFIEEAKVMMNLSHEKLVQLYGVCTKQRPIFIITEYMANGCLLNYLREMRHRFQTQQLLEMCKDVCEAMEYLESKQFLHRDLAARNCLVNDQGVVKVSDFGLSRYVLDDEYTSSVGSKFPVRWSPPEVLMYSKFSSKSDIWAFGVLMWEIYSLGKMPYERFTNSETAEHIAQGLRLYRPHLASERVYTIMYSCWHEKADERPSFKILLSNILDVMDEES", "assay": "Molecular probe assay of BTK occupancy in MDSCs of tumor bearing PDA mice", "format": "in vivo", "details": "15 mg/kg BID, Day 8, 4 hours post dose", "from_the_text": "A molecular probe assay was used to calculate the percent irreversible occupancy of total BTK."}, "NK cells (CD56+/CD107a+)": {"tested_on": "NK cells (CD56+/CD107a+)", "assay": "Whole blood NK cell degranulation with obinutuzumab-opsonised MEC-1 cells", "format": "cell-based, human", "details": "1 h pretreatment, obinutuzumab 1 μg/mL, 4 h", "experimental": "Degranulation in whole blood was performed as follows. […] Exponentially growing cells were used. […] A white blood cell (WBC) count of whole blood was performed. […] The ibrutinib control and two blinded BTK inhibitors were diluted in X-VIVO 15 serum-free hematopoietic cell medium (Lonza Group, Ltd.) to concentrations of 200 μM, 20 M and 2 μM. 170 μL aliquots of unmanipulated whole blood were incubated with 10 μL BTK inhibitors or X-VIVO 15 medium for one hour into a plate. […] The samples were placed in a 5% CO2 incubator for 4 hours at 37° C.\nAfter 4 hours, the samples were mixed gently and 50 μL aliquots were removed from each well and placed in fluorescence-activated cell sorting (FACS) test tubes. A 20 μL aliquot of anti-CD56-APC antibody and anti-CD107a-PE antibody was added. The samples were incubated for 20 minutes at room temperature in the dark. An aliquot of 2 mL of FACS lysing solution (BD Biosceinces) was added. The samples were again incubated for 5 minutes, and then centrifuged at 2000 rpm for 5 minutes. Supernatant was discarded and the cell pellet was resuspended in 500 μL of PBS. The samples were analyzed on the flow cytometer for CD107a^+ NK cells (CD56^+)."}, "CD8+ T cell function": {"tested_on": "CD8+ T cell function", "assay": "Cytotoxic T cell (CTL) assay", "format": "cell-based", "details": "relative to vehicle; for CD8+ T cell function as % cytotoxicity: 500 nM", "protocol": "Without being bound by any theory, CD8^+ T cells have two primary effector functions: (1) produce large amounts of IFN-γ (which activates macrophages), and (2) cytolytic activity. […] The targets were B lymphoblasts from lipopolysaccharide (LPS) treated cultures. The assay was performed by incubating different ratios of effectors:targets for 4 hours."}, "[6]": {"assay": "GLP functional observation battery", "format": "in vivo", "details": "rats, doses through 300 mg/kg", "from_the_text": "as §1"}, "CD8+ T cells": {"tested_on": "CD8+ T cells", "assay": "CD8+ T cell viability", "format": "cell-based", "details": "ibrutinib effect at higher doses", "protocol": "Total T cells were plated on anti-TCR and anti-CD28 coated wells in the presence of both BTK inhibitors. Neutral culture conditions were used that will not polarize T cells to a helper lineage. […] Statistical significance was calculated using the Mann Whitney T-test."}, "Th17 cells and Treg": {"tested_on": "Th17 cells and Treg", "assay": "Th17 and Treg development from CD4+ T cells", "format": "cell-based", "protocol": "Enriched CD4^+ T cells are plated on 24-well culture dishes that have been precoated 2 hr with 250 μL anti-TCRβ (0.5 μg/mL) plus anti-CD28 (5 μg/mL) at 37° C. in PBS. The cells are then supplemented with media containing BTK inhibitors along with the skewing cytokines as indicated in the following. The Th17 and Treg cultures are grown for 4 days before analysis. The cells are maintained for an additional 3 days with skewing cytokines (Th17; 20 ng/mL IL-6, 0.5 ng/mL TGF-β, 5 μg/mL IL-4, 5 μg/mL IFN-γ and Treg; 0.5 ng/mL TGF-β, 5 μg/mL IL-4, […] IFN-γ) and are supplemented with IL2 as a growth factor."}, "[7]": {"tested_on": "human platelet-mediated thrombosis", "assay": "Laser-induced thrombus formation with human platelets in VWF HA1 mice", "details": "in vivo", "protocol": "Injury to the vessel wall of arterioles ([…] diameter) was performed using a pulsed nitrogen dye laser (440 nm, Photonic Instruments) applied through a 20× water-immersion Olympus objective (LUMPlanF1, 0.5 numerical aperature (NA)) of a Zeiss Axiotech vario microscope. […] The extent of thrombus formation was assessed for 2 minutes after injury and the area (μm^2) of coverage determined (Image IQ, Andor Technology).\nThe BTK inhibitor-treated human platelets were fluorescently labeled and infused continuously through a catheter inserted into the femoral artery."}, "Raji cells": {"tested_on": "Raji cells", "assay": "Rituximab ADCC chromium release assay, Raji targets", "format": "cell-based, human", "details": "1 μM, healthy donor NK cells", "protocol": "All in vitro experiments were performed in triplicate.\nADCC assays were performed as follows. Briefly, target cells (Raji or primary CLL) were labeled by incubation at 37° C. with 100 μCi ^51Cr for 4 hours prior to co-culture with NK cells. Cells were washed, enumerated, and then added in triplicate to prepared 96-well plates containing treated NK cells at an effector:target (E:T) ratio of 25:1. […] Cultures were incubated at 37° C. for 4 hours, and then centrifuged. Supernatants were harvested and ^51Cr release was measured by liquid scintillation counting. All experiments were performed in triplicate."}, "[8]": {"details": "monotherapy, dose levels through 840 mg; cited from earlier work"}}, "data": [{"smiles": "CC#CC(=O)N1CCC[C@H]1c1nc(-c2ccc(C(=O)Nc3ccccn3)cc2)c2c(N)nccn12", "note": "[Formula (2)]", "values": [{"measurement": "CD8+ T cells", "setting": "ID8 ovarian cancer", "result": "increase"}, {"measurement": "immunosuppressive B cells, including Bregs", "setting": "ID8 ovarian cancer; tumor-bearing mice", "result": "significant reduction"}, {"measurement": "activity in binding assays with 80 pharmacologic targets", "setting": "[1]", "result": "significant activity only against the A3 adenosine receptor"}, {"measurement": "treatment-related adverse event: Headache", "setting": "Grade 1/2, All (N = 44)", "result": "7 (16) n (%)"}, {"measurement": "treatment-related adverse event: Diarrhea", "setting": "Grade 1, All (N = 44)", "result": "4 (9) n (%)"}, {"measurement": "treatment-related adverse event: Increased tendency to bruise", "setting": "Grade 1, All (N = 44)", "result": "6 (14) n (%)"}, {"measurement": "treatment-related adverse event: Petechiae", "setting": "Grade 1, All (N = 44)", "result": "3 (7) n (%)"}, {"measurement": "dose-limiting toxicities (DLTs)", "setting": "relapsed/refractory CLL", "result": "No DLTs"}, {"measurement": "grade of adverse events observed", "setting": "relapsed/refractory CLL", "result": "only grade 1 AEs"}, {"measurement": "lymphocytosis", "setting": "relapsed/refractory CLL", "result": "lack of lymphocytosis"}, {"measurement": "treatment-related serious adverse events (SAEs)", "setting": "relapsed/refractory CLL", "result": "No treatment-related serious adverse events"}, {"measurement": "progression-free survival versus ibrutinib-treated patients", "setting": "relapsed/refractory CLL", "result": "improvement in survival"}, {"measurement": "body temperature, cardiovascular and ECG (including QT interval) parameters", "setting": "[2]", "result": "no meaningful changes"}, {"measurement": "effect on GPVI platelet aggregation", "setting": "[3]", "result": "does not"}, {"measurement": "in vivo potency at inhibiting expression of activation markers CD69 and CD86", "setting": "[4]", "result": "more potent"}, {"measurement": "tumor volumes versus vehicle", "setting": "NSCLC (KrasLA2)", "result": "significant decrease"}, {"measurement": "metabolites found in hepatocytes", "setting": "[5]", "result": "two mono-oxidized metabolites and a glutathione conjugate"}, {"measurement": "irreversible BTK occupancy in granulocytic and monocytic MDSCs", "setting": "BTK", "result": "Complete BTK occupancy"}, {"measurement": "reduction of obinutuzumab-stimulated NK degranulation", "setting": "NK cells (CD56+/CD107a+)", "result": "minimal effect"}, {"measurement": "CD8+ T cell function as % cytotoxicity", "setting": "CD8+ T cell function", "result": "no effect"}, {"measurement": "CD8+ T cell function as IFN-γ level", "setting": "CD8+ T cell function", "result": "no effect"}, {"measurement": "neurobehavioral effects and body temperature", "setting": "[6]", "result": "no adverse effects"}, {"measurement": "effect on CD8+ T cell viability", "setting": "CD8+ T cells", "result": "no effect"}, {"measurement": "effect on T helper 17 (Th17) cells", "setting": "Th17 cells and Treg", "result": "no adverse effect"}, {"measurement": "effect on regulatory T cell (Treg) development", "setting": "Th17 cells and Treg", "result": "no effect"}, {"measurement": "effect on human platelet-mediated thrombus formation", "setting": "[7]", "result": "no significant effect"}]}, {"smiles": "C=CC(=O)N1CCC[C@@H](n2nc(-c3ccc(Oc4ccccc4)cc3)c3c(N)ncnc32)C1", "note": "[Formula (10), reference compound]", "values": [{"measurement": "effect on GPVI platelet aggregation", "setting": "[3]", "result": "significantly inhibits"}, {"measurement": "CD8+ T cell function as % cytotoxicity", "setting": "CD8+ T cell function", "result": "affects"}, {"measurement": "CD8+ T cell function as IFN-γ level", "setting": "CD8+ T cell function", "result": "affects"}, {"measurement": "effect on antibody-dependent lysis of rituximab-coated Raji cells", "setting": "Raji cells", "result": "strongly inhibited"}, {"measurement": "maximum tolerated dose", "setting": "[8]", "result": "No maximum tolerated dose (MTD) was apparent"}, {"measurement": "effect on CD8+ T cell viability", "setting": "CD8+ T cells", "result": "strongly affects"}, {"measurement": "effect on T helper 17 (Th17) cells", "setting": "Th17 cells and Treg", "result": "strongly inhibits"}, {"measurement": "effect on regulatory T cell (Treg) development", "setting": "Th17 cells and Treg", "result": "strongly increases"}]}]}
